The target of this assay is T1, human GPR119 (Homo sapiens, UniProt Q8TDV5).
T1 sequence (Q8TDV5 1-308 limits assumed): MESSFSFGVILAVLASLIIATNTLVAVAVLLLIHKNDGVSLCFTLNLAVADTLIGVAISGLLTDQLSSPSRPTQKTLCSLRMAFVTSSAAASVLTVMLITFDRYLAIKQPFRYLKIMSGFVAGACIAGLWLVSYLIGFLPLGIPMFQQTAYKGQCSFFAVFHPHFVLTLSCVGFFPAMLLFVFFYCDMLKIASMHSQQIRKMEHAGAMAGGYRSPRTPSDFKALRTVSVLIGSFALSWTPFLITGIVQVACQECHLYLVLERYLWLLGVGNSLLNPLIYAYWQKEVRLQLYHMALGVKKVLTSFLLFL
Put plainly: Measurement of GPR119 signaling by cAMP (LANCE cAMP kit or HTRF) in HEK293 cells transfected with human GPR119. In kind it is cell-based. Conditions: agonist cAMP response in HEK293 cells stably transfected with human GPR119; patent does not say which of the two cAMP formats (LANCE or HTRF). In outline: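 LANCE TR-FRET cAMP readout; detection with Eu-SA/biotin-cAMP tracer for 3 h, signal converted to cAMP via standard curve, duplicates, 4-parameter fit vs DMSO basal and internal agonist maximum.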
On the technique in general: TR-FRET usually uses a lanthanide donor and a delayed reading to cut background.
What is called EC50 is the concentration needed to bring the measured effect to its halfway point. On to `CCc1cnc(N2CCC([C@H]3C[C@H]3CCOc3ccc(CC(=O)N4CCC4)c(OC)c3)CC2)nc1` [Example 27], for which it took 3.2 nM to reach a half-maximal effect (EC50). In other words, the single-digit nanomolar range.
Regarding `COCc1cnc(N2CCC([C@H]3C[C@H]3CCOc3ccc(CC(=O)N(C)C4COC4)c(F)c3)CC2)nc1` [Example 54], the concentration for a half-maximal effect (EC50) was 2.5 nM.
On to `O=C(Cc1ccc(OCC[C@@H]2C[C@@H]2C2CCN(c3ncc(Cl)cn3)CC2)cc1F)N1CCC[C@@H]1C(F)(F)F` [Example 76], for which the EC50 worked out at 2.4 nM.
The value for `O=C(Cc1ccc(OCC[C@@H]2C[C@@H]2C2CCN(c3ncc(Cl)cn3)CC2)cc1F)NC1CC1(F)F` (stereo partly drawn) [Example 88] was 1.7 nM; that for `COCc1cnc(N2CCC([C@H]3C[C@H]3CCOc3ccc(CC(=O)N4CCC4)cc3)CC2)nc1` [Example 9] was 3.8 nM.
To `CC(C)(O)c1cnc(N2CCC([C@H]3C[C@H]3CCOc3cc(F)c(CC(=O)N4CCC4)c(F)c3)CC2)nc1` [Example 206] belongs 0.71 nM.
The value for `O=C(Cc1ccc(OCC[C@@H]2C[C@@H]2C2CCN(c3ncc(Cl)cn3)CC2)cc1F)N1CCn2ncnc2C1` [Example 135] was 0.54 nM; that for `CC(C)CCN(C)C(=O)Cc1ccc(OCC[C@@H]2C[C@@H]2C2CCN(c3ncc(Cl)cn3)CC2)cc1F` [Example 109] was 10.3 nM.
`COCc1cnc(N2CCC([C@H]3C[C@H]3CCOc3ccc(CC(=O)N4CC(O)C4)c(F)c3)CC2)nc1` [Example 42] yielded an EC50 of 3.4 nM.
On to `CC1(O)CCN(C(=O)Cc2ccc(OCC[C@@H]3C[C@@H]3C3CCN(c4ncc(Cl)cn4)CC3)cc2F)C1` (stereo partly drawn) [Example 74], for which a half-maximal effect (EC50) was put at 4.2 nM.
The value for `CC(C)CN(C)C(=O)Cc1ccc(OCC[C@@H]2C[C@@H]2C2CCN(c3ncc(Cl)cn3)CC2)cc1F` [Example 166] was 2 nM; that for `COCc1cnc(N2CCC([C@H]3C[C@H]3CCOc3ccc(CC(=O)N(C)C4CC4)c(F)c3)CC2)nc1` [Example 55] was 4.4 nM; that for `COCc1cnc(N2CCC([C@H]3C[C@H]3CCOc3ccc(CC(=O)N4CC(OC)C4)cc3)CC2)nc1` [Example 8] was 2.9 nM.
`O=C(Cc1ccc(OCC[C@@H]2C[C@@H]2C2CCN(c3ncc(Cl)cn3)CC2)cc1F)N1CCc2ccncc2C1` [Example 128] showed an EC50 of 2.3 nM.
The value for `COCc1cnc(N2CCC([C@H]3C[C@H]3CCOc3ccc(CC(=O)N4CCC4)c(F)c3)CC2)nc1` [Example 41, 1-(azetidin-1yl)-2-(2-fluoro-4-{2 [(1S,2R)-2-{1-[5-(methoxylmethyl)pyrimidin-2yl]piperidin-4-yl}cyclopropyl]ethoxyl}phenyl)ethanone] was 0.77 nM.
To `CN(CCS(C)(=O)=O)C(=O)Cc1ccc(OCC[C@@H]2C[C@@H]2C2CCN(c3ncc(Cl)cn3)CC2)cc1F` [Example 169] belongs 3.2 nM; to `CCOc1cnc(N2CCC([C@H]3C[C@H]3CCOc3cc(F)c(CC(=O)N4CC(F)C4)c(F)c3)CC2)nc1` [Example 230], 0.11 nM.
The molecule `O=C(Cc1ccc(OCC[C@@H]2C[C@@H]2C2CCN(c3ncc(Cl)cn3)CC2)cc1F)N1CCn2nc(C(F)(F)F)nc2C1` [Example 134] showed a concentration giving a half-maximal response (EC50) of 1 nM.
On to `CC1(O)CN(C(=O)Cc2ccc(OCC[C@@H]3C[C@@H]3C3CCN(c4ncc(Cl)cn4)CC3)cc2F)C1` [Example 66], for which the concentration for a half-maximal effect (EC50) amounted to 0.4 nM.
The value for `CCc1cnc(N2CCC([C@H]3C[C@H]3CCOc3ccc(CC(=O)N4CCC4)c(F)c3)CC2)nc1` [Example 207, 1-(azetidin-1-yl)-2-[4-(2-{(1S,2R)-2-[1-(5-ethylpyrimidin-2-yl)piperidin-4-yl]cyclopropyl}ethoxy)-2-fluorophenyl]ethanone] was 0.4 nM.
To `O=C(Cc1ccc(OCC[C@@H]2C[C@@H]2C2CCN(c3ncc(Cl)cn3)CC2)cc1F)N1CCCc2ncccc21` [Example 131] belongs 8 nM.
To `COc1cnc(N2CCC([C@H]3C[C@H]3CCOc3ccc(CC(=O)N4CC(OC)C4)c(F)c3)CC2)nc1` [Example 34] belongs 0.98 nM.
Take `O=C(Cc1ccc(OCC[C@@H]2C[C@@H]2C2CCN(c3ncc(Cl)cn3)CC2)cc1F)NC1CCCC1F` (stereo partly drawn) [Example 111]: the concentration giving a half-maximal response (EC50) amounted to 3 nM.
The value for `COC(=O)C1CN1C(=O)Cc1ccc(OCC[C@@H]2C[C@@H]2C2CCN(c3ncc(Cl)cn3)CC2)cc1F` (stereo partly drawn) [Example 107] was 8.9 nM; that for `O=C(Cc1ccc(OCC[C@@H]2C[C@@H]2C2CCN(c3ncc(Cl)cn3)CC2)cc1F)NC1CCC(F)(F)C1` (stereo partly drawn) [Example 95] was 2.3 nM.
Molecule `COCc1cnc(N2CCC([C@H]3C[C@H]3CCOc3ccc(CC(=O)N4CC(OC)C4)c(Cl)c3)CC2)nc1` [Example 30] yielded an EC50 of 0.86 nM.
With `CC1c2nnc(C(F)(F)F)n2C(C)CN1C(=O)Cc1ccc(OCC[C@@H]2C[C@@H]2C2CCN(c3ncc(Cl)cn3)CC2)cc1F` (stereo partly drawn) [Example 193], the midpoint of the response, the EC50, lay at 1.1 nM.
The molecule `O=C(Cc1ccc(OCC[C@@H]2C[C@@H]2C2CCN(c3ncc(Cl)cn3)CC2)cc1)N1CCOCC1` [Example 5] had an EC50 of 3.6 nM.
The molecule `COC[C@@H]1CCCN1C(=O)Cc1ccc(OCC[C@@H]2C[C@@H]2C2CCN(c3ncc(Cl)cn3)CC2)cc1F` [Example 78] showed an EC50 of 3.8 nM. The EC50 values of the last two molecules are within 1.5-fold of each other.
`COCc1cnc(N2CCC([C@H]3C[C@H]3CCOc3ccc(CC(=O)N4CCOCC4)c(F)c3)CC2)nc1` [Example 46] showed a half-maximal effective concentration (EC50) of 1.8 nM. Against the preceding molecule, the EC50 is about 2.1-fold lower.
The value for `O=C(Cc1ccc(OCC[C@@H]2C[C@@H]2C2CCN(c3ncc(Cl)cn3)CC2)cc1F)N1CCc2c(C(F)(F)F)n[nH]c2C1` [Example 147] was 2.9 nM; that for `COCc1cnc(N2CCC([C@H]3C[C@H]3CCOc3ccc(CC(=O)N4CCC[C@@H]4C)c(F)c3)CC2)nc1` [Example 49] was 1.6 nM.
Molecule `COCc1cnc(N2CCC([C@H]3C[C@H]3CCOc3ccc(CC(=O)N4CCCCC4)c(F)c3)CC2)nc1` [Example 48] showed a concentration for a half-maximal effect (EC50) of 0.99 nM.
To `CCOCc1cnc(N2CCC([C@H]3C[C@H]3CCOc3ccc(CC(=O)N(C)C)c(F)c3)CC2)nc1` [Example 204] belongs 1.2 nM; to `O=C(Cc1ccc(OCC[C@@H]2C[C@@H]2C2CCN(c3ncc(Cl)cn3)CC2)cc1F)N1CCc2sc(C3CC3)nc2C1` [Example 190], 6.4 nM.
The molecule `COCc1cnc(N2CCC([C@H]3C[C@H]3CCOc3ccc(CC(=O)N4CCC4)c(C#N)c3)CC2)nc1` [Example 25] displayed an EC50 of 1.4 nM. This EC50 lies about 4.6-fold lower than the previous one.
To `O=C(Cc1ccc(OCC[C@@H]2C[C@@H]2C2CCN(c3ncc(Cl)cn3)CC2)cc1F)N1CC(n2cccn2)C1` [Example 119] belongs 0.81 nM; to `COCc1cnc(N2CCC([C@H]3C[C@H]3CCOc3ccc(CC(=O)N4CC(F)C4)c(F)c3)CC2)nc1` [Example 43], 0.54 nM.
`Cc1nc2c(o1)CCN(C(=O)Cc1ccc(OCC[C@@H]3C[C@@H]3C3CCN(c4ncc(Cl)cn4)CC3)cc1F)C2` [Example 136]: it took 0.73 nM to reach a half-maximal effect (EC50).
To `COCc1cnc(N2CCC([C@H]3C[C@H]3CCOc3cc(F)c(CC(=O)N(C)C)c(F)c3)CC2)nc1` [Example 224] belongs 0.4 nM; to `CN(C(=O)Cc1ccc(OCC[C@@H]2C[C@@H]2C2CCN(c3ncc(Cl)cn3)CC2)cc1F)C1CCOC1` (stereo partly drawn) [Example 154], 0.41 nM; to `O=C(Cc1ccc(OCC[C@@H]2C[C@@H]2C2CCN(c3ncc(Cl)cn3)CC2)cc1F)N1Cc2nc(-c3ccccc3)[nH]c2C1` [Example 197], 6.8 nM.
To `CCOc1cnc(N2CCC([C@H]3C[C@H]3CCOc3cc(F)c(CC(=O)N4CC(C)(O)C4)c(F)c3)CC2)nc1` [Example 233] belongs 0.66 nM.
To `O=C(Cc1ccc(OCC[C@@H]2C[C@@H]2C2CCN(c3ncc(Cl)cn3)CC2)cc1F)NC1CCCC1` [Example 83] belongs 1.3 nM; to `CCc1cnc(N2CCC([C@H]3C[C@H]3CCOc3ccc(CC(=O)N4CCC4)c(Cl)c3)CC2)nc1` [Example 21], 0.19 nM; to `COc1cnc(N2CCC([C@H]3C[C@H]3CCOc3cc(F)c(CC(=O)N4CC(F)C4)c(F)c3)CC2)nc1` [Example 216], 0.09 nM.
In the case of `COc1cnc(N2CCC([C@H]3C[C@H]3CCOc3cc(F)c(CC(=O)N4CCOCC4)c(F)c3)CC2)nc1` [Example 215], the concentration giving a half-maximal response (EC50) came to 0.29 nM.
Regarding `CCOc1cnc(N2CCC([C@H]3C[C@H]3CCOc3cc(F)c(CC(=O)N4CC(F)(F)C4)c(F)c3)CC2)nc1` [Example 231], the EC50 turned out to be 0.13 nM.
`COCc1cnc(N2CCC([C@H]3C[C@H]3CCOc3ccc(Cc4nncs4)c(F)c3)CC2)nc1` [Example 248, 2-[4-((1R,2S)-2-{2-[3-fluoro-4-(1,3,4-thiadiazol-2-ylmethyl)phenoxy]ethyl}cyclopropyl)piperidin-1-yl]-5-(methoxymethyl)pyrimidine]: the concentration giving a half-maximal response (EC50) was 4.2 nM.
The value for `COCc1cnc(N2CCC([C@H]3C[C@H]3CCOc3ccc(CC(=O)N4CC(F)C4)cc3)CC2)nc1` [Example 11] was 2.9 nM; that for `COCc1cnc(N2CCC([C@H]3C[C@H]3CCOc3cc(F)c(CC(=O)N4CC(OC)C4)c(F)c3)CC2)nc1` [Example 225] was 0.35 nM.

Values taken from patent US9018224B2, “Substituted cyclopropyl compounds useful as GPR119 agonists” (Merck Sharp & Dohme Corp., priority 2011, dated 2015).
